# Reference: patent publication US9253983B2, “Triazole compound and use thereof” (KUREHA CORPORATION, priority 2011, dated 2016)
# Tested on: Rhizoctonia solani
# Assay: Test 1 for antifungal effect, plate medium: R.s
# Type: cell-based
# Details: PDA plate medium
# Protocol: Compound (1-1a) or Compound (1-2a) was dissolved in dimethyl sulfoxide, and the resulting solution was added to a PDA medium (potato dextrose-agar medium) at about 60° C. The medium and the solution were mixed thoroughly in a conical flask, poured into a petri dish, and allowed to solidify. In this way, a plate medium containing Compound (1-1a) or Compound (1-2a) at a certain concentration was prepared.
# Meanwhile, test microorganisms cultured on a plate medium in advance were cut out with the use of a cork borer 4 mm in diameter, and were inoculated onto the compound-containing plate medium. After the inoculation, the microorganisms were cultured at their optimum growth temperatures (for example, refer to LIST OF CULTURES 1996 microorganisms 10th edition, Institute for Fermentation (foundation)) for 1 day to 7 days, and their growth was determined by measuring the diameter of their flora. The extent of growth of the microorganisms on the compound-containing plate medium was compared with that of microorganisms on a plate medium where no compound was added, and mycelial growth inhibition rate was calculated by the following equation: R=100(dc−dt)/dc where R is mycelial growth inhibition rate (%), dc is the flora diameter in untreated plate, and dt is the flora diameter in plate treated with the compound.
# A larger antifungal index indicates a better antifungal effect.
Structure (SMILES),Antifungal index (mycelial growth inhibition rate) (0.16 mg/L),Antifungal index (mycelial growth inhibition rate) (0.31 mg/L),Antifungal index (mycelial growth inhibition rate) (0.63 mg/L),Antifungal index (mycelial growth inhibition rate) (1.25 mg/L),Antifungal index (mycelial growth inhibition rate) (2.50 mg/L)
"CC1(CCl)CCC(Cc2ccc(Cl)cc2)C1(O)Cn1cncn1 (single isomer, unassigned) [Compound (1-1b), (1,2-cis, 1,5-cis)-5-(4-chlorobenzyl)-2-chloromethyl-2-methyl-1-(1H-1,2,4-triazole-1-ylmethyl)cyclopentanol]",1 (Less than 60%),1 (Less than 60%),2 (Less than 70% but not less than 60%),2 (Less than 70% but not less than 60%),2 (Less than 70% but not less than 60%)
"CC1(CCl)CCC(Cc2ccc(Cl)cc2)C1(O)Cn1cncn1 (single isomer, unassigned) [Compound (1-1a), (1,2-cis, 1,5-cis)-5-(4-chlorobenzyl)-2-chloromethyl-2-methyl-1-(1H-1,2,4-triazole-1-ylmethyl)cyclopentanol]",2 (Less than 70% but not less than 60%),2 (Less than 70% but not less than 60%),2 (Less than 70% but not less than 60%),2 (Less than 70% but not less than 60%),3 (Less than 80% but not less than 70%)
